Literature values as cited in article PMC5296674, “Evaluation of the Availability and Antioxidant Capacity of Maillard Compounds Present in Bread Crust: Studies in Caco-2 Cells” (Foods, 2017).

System: Caco-2 cells
Design: method as in PMID 19338346

HMF transport rate (100 µM HMF solution, 4 h of incubation)	SMILES	Saturation of transport (100 and 500 μM)
–	CC1=C(O)C(=O)C(C)O1 (centres unmarked) [HDMF, 4-hydroxy-2,5-dimethyl-3(2H)-furanone]	saturation of the transport was not observed
around 20%	O=Cc1ccc(CO)o1 [HMF, hydroxymethylfurfural]	–
